Results reported in patent publication US9879032B2, “Pyridine compounds” (Daiichi Sankyo Company, Limited, priority 2015, dated 2018).
pIC50: −log10 of the molar value.

What follows are compounds tested against human TNAP (Homo sapiens (Human), UniProt P05186) (assay: Inhibitory test of TNAP activity (pNPP substrate, p-nitrophenol production)). Conditions: inhibition of human TNAP activity, incubated at room temperature for 60 minutes.
Assay type: biochemical
Protocol: COS 1 cells (DS Pharma Biomedical Co., Ltd.) were transfected with human TNAP (OriGene Technologies, Inc.) using Lipofectamine LTX & Plus reagent (Invitrogen Corp.). On the next day, the medium was replaced with a fresh medium, and the cells were cultured in an incubator for 3 days. After 3 days, the culture supernatant was collected and concentrated by centrifugation at 5000 G for 30 minutes using Amicon 14, 10^4 cut (Merck Millipore). The concentrated culture supernatant was dialyzed against 5 L of 50 mM Tris/200 mM NaCl/1 mM MgCl2/20 μM ZnCl2 twice and used as an enzyme source (enzyme solution). The substrate pNPP (ProteoChem Inc.) was adjusted to 3.1 mM with Milli-Q water, and a solution of each test compound dissolved in dimethyl sulfoxide (DMSO; Wako Pure Chemical Industries, Ltd.) by 6 serial dilutions at a 5-fold common ratio from 100 μM, or DMSO was added thereto at a final concentration of 1% by volume. The enzyme solution adjusted to 2 μg/mL with an assay buffer (200 mM Tris/2 mM MgCl2/0.04 mM ZnCl2/0.01% Tween 20) was added in the same amount of the substrate solution and incubated at room temperature for 60 minutes. Then, the absorbance (ABS: 405 nm) was measured using a microplate reader (model plus 384, Molecular Devices, LLC), and the concentration of produced p-nitrophenol was calculated.

human TNAP, sequence (P05186 18-502): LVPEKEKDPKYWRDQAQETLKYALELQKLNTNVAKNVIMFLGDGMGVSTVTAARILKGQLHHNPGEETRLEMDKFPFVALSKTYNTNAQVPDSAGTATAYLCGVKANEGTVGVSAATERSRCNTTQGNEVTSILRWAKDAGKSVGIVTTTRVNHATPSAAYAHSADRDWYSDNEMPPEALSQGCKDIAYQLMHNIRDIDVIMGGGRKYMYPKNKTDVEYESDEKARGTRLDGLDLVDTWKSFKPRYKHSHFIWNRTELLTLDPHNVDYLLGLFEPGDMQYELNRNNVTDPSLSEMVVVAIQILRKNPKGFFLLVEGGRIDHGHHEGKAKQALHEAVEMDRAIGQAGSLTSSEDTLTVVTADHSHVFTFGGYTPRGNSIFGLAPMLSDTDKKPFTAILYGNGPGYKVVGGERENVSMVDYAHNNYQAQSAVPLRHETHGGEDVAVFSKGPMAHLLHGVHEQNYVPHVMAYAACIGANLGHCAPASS

Row | SMILES | pIC50
1 | COc1ccc(Cl)cc1S(=O)(=O)Nc1cnc2c(c1)C(=O)N(C)CCO2 [Example 1, 5-Chloro-2-methoxy-N-(4-methyl-5-oxo-2,3,4,5-tetrahydropyrido[3,2-f][1,4]oxazepin-7-yl)benzenesulfonamide] | 8.20
2 | COc1ccc(F)cc1S(=O)(=O)Nc1cnc2c(c1)C(=O)N(C)CCO2 [Example 2, 5-Fluoro-2-methoxy-N-(4-methyl-5-oxo-2,3,4,5-tetrahydropyrido[3,2-f][1,4]oxazepin-7-yl)benzenesulfonamide] | 7.90
3 | CCN1CCOc2ncc(NS(=O)(=O)c3cc(Cl)ccc3OC)cc2C1=O [Example 3, 5-Chloro-N-(4-ethyl-5-oxo-2,3,4,5-tetrahydropyrido[3,2-f][1,4]oxazepin-7-yl)-2-methoxybenzenesulfonamide] | 7.89
4 | CCN1CCOc2ncc(NS(=O)(=O)c3cc(F)ccc3OC)cc2C1=O [Example 4, N-(4-Ethyl-5-oxo-2,3,4,5-tetrahydropyrido[3,2-f][1,4]oxazepin-7-yl)-5-fluoro-2-methoxybenzenesulfonamide] | 7.64
5 | COc1ccc(Cl)cc1S(=O)(=O)Nc1cnc2c(c1)C(=O)N(C(C)C)CCO2 [Example 5, 5-Chloro-2-methoxy-N-[5-oxo-4-(propan-2-yl)-2,3,4,5-tetrahydropyrido[3,2-f][1,4]oxazepin-7-yl]benzenesulfonamide] | 7.15
6 | COc1ccc(Cl)cc1S(=O)(=O)Nc1cnc2c(c1)C(=O)N(CCO)CCO2 [Example 6, 5-Chloro-N-[4-(2-hydroxyethyl)-5-oxo-2,3,4,5-tetrahydropyrido[3,2-f][1,4]oxazepin-7-yl]-2-methoxybenzenesulfonamide] | 8.21
7 | COCCN1CCOc2ncc(NS(=O)(=O)c3cc(Cl)ccc3OC)cc2C1=O [Example 7, 5-Chloro-2-methoxy-N-[4-(2-methoxyethyl)-5-oxo-2,3,4,5-tetrahydropyrido[3,2-f][1,4]oxazepin-7-yl]benzenesulfonamide] | 7.97
8 | COc1ccc(CN2CCOc3ncc(NS(=O)(=O)c4cc(Cl)ccc4OC)cc3C2=O)c(OC)c1 [Example 8, 5-Chloro-N-[4-(2,4-dimethoxybenzyl)-5-oxo-2,3,4,5-tetrahydropyrido[3,2-f][1,4]oxazepin-7-yl]-2-methoxybenzenesulfonamide] | 8.04
9 | COc1ccc(Cl)cc1S(=O)(=O)Nc1cnc2c(c1)C(=O)NCCO2 [Example 9, 5-Chloro-2-methoxy-N-(5-oxo-2,3,4,5-tetrahydropyrido[3,2-f][1,4]oxazepin-7-yl)benzenesulfonamide] | 8.85
10 | COc1ccc(F)cc1S(=O)(=O)Nc1cnc2c(c1)C(=O)NCCO2 [Example 10, 5-Fluoro-2-methoxy-N-(5-oxo-2,3,4,5-tetrahydropyrido[3,2-f][1,4]oxazepin-7-yl)benzenesulfonamide] | 8.40
11 | COc1ccc(OC)c(S(=O)(=O)Nc2cnc3c(c2)C(=O)NCCO3)c1 [Example 11, 2,5-Dimethoxy-N-(5-oxo-2,3,4,5-tetrahydropyrido[3,2-f][1,4]oxazepin-7-yl)benzenesulfonamide] | 8.32
12 | COc1ccccc1S(=O)(=O)Nc1cnc2c(c1)C(=O)NCCO2 [Example 12, 2-Methoxy-N-(5-oxo-2,3,4,5-tetrahydropyrido[3,2-f][1,4]oxazepin-7-yl)benzenesulfonamide] | 7.87
13 | O=C1NCCOc2ncc(NS(=O)(=O)c3cc(Cl)ccc3OC(F)(F)F)cc21 [Example 13, 5-Chloro-N-(5-oxo-2,3,4,5-tetrahydropyrido[3,2-f][1,4]oxazepin-7-yl)-2-(trifluoromethoxy)benzenesulfonamide] | 8.47
14 | COc1ccc(Cl)cc1S(=O)(=O)Nc1cnc2c(c1)C(=O)N(C)CC(C)O2 (centres unmarked) [Example 14, 5-Chloro-N-(2,4-dimethyl-5-oxo-2,3,4,5-tetrahydropyrido[3,2-f][1,4]oxazepin-7-yl)-2-methoxybenzenesulfonamide] | 7.44
15 | COc1ccc(F)cc1S(=O)(=O)Nc1cnc2c(c1)C(=O)N(C)CC(C)O2 (centres unmarked) [Example 15, N-(2,4-Dimethyl-5-oxo-2,3,4,5-tetrahydropyrido[3,2-f][1,4]oxazepin-7-yl)-5-fluoro-2-methoxybenzenesulfonamide] | 7.02
16 | COc1ccc(Cl)cc1S(=O)(=O)Nc1cnc2c(c1)C(=O)N(C)C(C)CO2 (centres unmarked) [Example 16, 5-Chloro-N-(3,4-dimethyl-5-oxo-2,3,4,5-tetrahydropyrido[3,2-f][1,4]oxazepin-7-yl)-2-methoxybenzenesulfonamide] | 8.21
17 | COc1ccc(F)cc1S(=O)(=O)Nc1cnc2c(c1)C(=O)N(C)C(C)CO2 (centres unmarked) [Example 17, N-(3,4-Dimethyl-5-oxo-2,3,4,5-tetrahydropyrido[3,2-f][1,4]oxazepin-7-yl)-5-fluoro-2-methoxybenzenesulfonamide] | 7.90
18 | COc1ccc(Cl)cc1S(=O)(=O)Nc1cnc2c(c1)C(=O)N(C)[C@@H](C)CO2 [Example 18, 5-Chloro-N-[(3S)-3,4-dimethyl-5-oxo-2,3,4,5-tetrahydropyrido[3,2-f][1,4]oxazepin-7-yl]-2-methoxybenzenesulfonamide] | 8.41
19 | COc1ccc(F)cc1S(=O)(=O)Nc1cnc2c(c1)C(=O)N(C)[C@@H](C)CO2 [Example 19, N-[(3S)-3,4-Dimethyl-5-oxo-2,3,4,5-tetrahydropyrido[3,2-f][1,4]oxazepin-7-yl]-5-fluoro-2-methoxybenzenesulfonamide] | 8.19
20 | COc1ccc(Cl)cc1S(=O)(=O)Nc1cnc2c(c1)C(=O)N(C)[C@H](C)CO2 [Example 20, 5-Chloro-N-[(3R)-3,4-dimethyl-5-oxo-2,3,4,5-tetrahydropyrido[3,2-f][1,4]oxazepin-7-yl]-2-methoxybenzenesulfonamide] | 7.57
21 | COc1ccc(F)cc1S(=O)(=O)Nc1cnc2c(c1)C(=O)N(C)[C@H](C)CO2 [Example 21, N-[(3R)-3,4-Dimethyl-5-oxo-2,3,4,5-tetrahydropyrido[3,2-f][1,4]oxazepin-7-yl]-5-fluoro-2-methoxybenzenesulfonamide] | 7.34
22 | COc1ccc(Cl)cc1S(=O)(=O)Nc1cnc2c(c1)C(=O)N[C@@H](C)CO2 [Example 22, 5-Chloro-2-methoxy-N-[(3S)-3-methyl-5-oxo-2,3,4,5-tetrahydropyrido[3,2-f][1,4]oxazepin-7-yl]benzenesulfonamide] | 8.77
23 | COc1ccc(F)cc1S(=O)(=O)Nc1cnc2c(c1)C(=O)N[C@@H](C)CO2 [Example 23, 5-Fluoro-2-methoxy-N-[(3S)-3-methyl-5-oxo-2,3,4,5-tetrahydropyrido[3,2-f][1,4]oxazepin-7-yl]benzenesulfonamide] | 8.46
24 | CC[C@H]1COc2ncc(NS(=O)(=O)c3cc(Cl)ccc3OC)cc2C(=O)N1C [Example 24, 5-Chloro-N-[(3S)-3-ethyl-4-methyl-5-oxo-2,3,4,5-tetrahydropyrido[3,2-f][1,4]oxazepin-7-yl]-2-methoxybenzenesulfonamide] | 8.14
25 | CC[C@H]1COc2ncc(NS(=O)(=O)c3cc(Cl)ccc3OC)cc2C(=O)N1 [Example 25, 5-Chloro-N-[(3S)-3-ethyl-5-oxo-2,3,4,5-tetrahydropyrido[3,2-f][1,4]oxazepin-7-yl]-2-methoxybenzenesulfonamide] | 8.77
26 | COc1ccc(Cl)cc1S(=O)(=O)Nc1cnc2c(c1)C(=O)N[C@@H](C(C)C)CO2 [Example 26, 5-Chloro-2-methoxy-N-[(3S)-5-oxo-3-(propan-2-yl)-2,3,4,5-tetrahydropyrido[3,2-f][1,4]oxazepin-7-yl]benzenesulfonamide] | 8.06
